From PMC9465062, “Exploring potential antidiabetic and anti-inflammatory flavonoids from Euphorbia humifusa with an integrated strategy” (Frontiers in Pharmacology, 2022) come the findings set out here.

A word on the IC50: it is the concentration needed to halve the response being measured.

“And” between values parts separate entries of the source, which are not always exact repeats. Identical values can stand only once. Like-named read-outs stand apart in the source and are kept apart here. Marks after values point to notes of the source that are not given here.

A short description of assay [1]: DPPH free radical scavenging assay. Particulars: mean ± SD, n = 3. The procedure:
(§1) The antioxidant activity of our samples was ascertained by evaluating their capacity to scavenge free radicals and reduce ferric ions. The DPPH and ABTS free radical scavenging assays were performed as per the method of Xu and his colleagues ([Xu et al., 2019]). Vit C, Trolox, and BHT were utilized as positive controls whereas pure methanol was for the blank control. The scavenging rate was calculated using the equation: Scavenging rate (%) =(A0 −AS)/A0× 100% With A 0 and As are ascribed to the absorbance value of the blank control, and the tested sample or positive control respectively. The results were expressed in IC50 values (n = 3, mean ± standard deviation).

Another assay deals with α-glucosidase (α-Glu) (Saccharomyces cerevisiae, UniProt P53341). In words: Bio-affinity ultrafiltration UPLC/QTOF-MS with α-Glu. Conditions: SB = Aactive/Ainactive, ligands from EHNB.
Sequence of α-glucosidase (α-Glu) (P53341 whole entry): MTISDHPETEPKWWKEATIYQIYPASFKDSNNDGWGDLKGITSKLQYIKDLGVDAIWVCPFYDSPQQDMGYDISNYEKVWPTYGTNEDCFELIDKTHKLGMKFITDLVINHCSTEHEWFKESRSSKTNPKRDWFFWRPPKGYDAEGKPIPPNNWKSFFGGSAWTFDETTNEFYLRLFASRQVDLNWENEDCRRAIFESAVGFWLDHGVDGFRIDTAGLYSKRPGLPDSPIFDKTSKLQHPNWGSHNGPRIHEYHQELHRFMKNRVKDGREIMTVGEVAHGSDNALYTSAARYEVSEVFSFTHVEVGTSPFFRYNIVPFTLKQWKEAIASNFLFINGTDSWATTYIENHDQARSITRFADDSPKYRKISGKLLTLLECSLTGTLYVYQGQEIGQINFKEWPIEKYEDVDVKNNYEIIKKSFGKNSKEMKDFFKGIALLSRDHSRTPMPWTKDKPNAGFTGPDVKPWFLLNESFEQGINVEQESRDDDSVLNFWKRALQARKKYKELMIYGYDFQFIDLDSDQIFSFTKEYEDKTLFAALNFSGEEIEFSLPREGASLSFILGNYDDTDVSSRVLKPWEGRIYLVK
Assay [2] deals with T1, COX-2 (Homo sapiens, UniProt P35354).
T1 sequence (P35354 18-604): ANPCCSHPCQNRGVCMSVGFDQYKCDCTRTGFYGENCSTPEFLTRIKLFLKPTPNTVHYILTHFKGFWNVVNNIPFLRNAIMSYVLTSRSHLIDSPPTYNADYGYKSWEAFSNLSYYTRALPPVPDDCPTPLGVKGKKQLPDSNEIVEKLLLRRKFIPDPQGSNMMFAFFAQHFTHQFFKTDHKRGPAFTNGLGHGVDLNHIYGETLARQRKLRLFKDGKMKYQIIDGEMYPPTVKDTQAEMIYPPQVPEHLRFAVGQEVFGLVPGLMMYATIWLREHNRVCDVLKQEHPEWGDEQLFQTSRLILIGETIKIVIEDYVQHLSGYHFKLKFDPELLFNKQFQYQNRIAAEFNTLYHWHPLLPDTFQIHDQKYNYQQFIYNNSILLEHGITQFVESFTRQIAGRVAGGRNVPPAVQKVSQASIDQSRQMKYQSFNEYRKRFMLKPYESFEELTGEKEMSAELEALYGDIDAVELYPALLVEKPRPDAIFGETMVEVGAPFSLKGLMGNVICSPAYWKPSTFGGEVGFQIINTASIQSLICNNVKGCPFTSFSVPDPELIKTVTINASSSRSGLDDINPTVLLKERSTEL
In words: Bio-affinity ultrafiltration UPLC/QTOF-MS with COX-2. Conditions: SB = Aactive/Ainactive, ligands from EHNB.
Protocol: (§2) Concisely, 100 µL volume of EHNB sample was incubated with 40 µL COX-2 (8 units), or 100 µL α-Glu (6 units) active enzymes. Afterward, the mix solutions were incubated for 45 min and subsequently transferred to a centrifugal ultrafiltration vial 10 kDa cut-off filter membrane. They were initially centrifuged at 10,000 rpm for 10 min (25°C) to withdraw the extra solution followed by three successive centrifugations with 200 µL phosphate-buffered saline (PBS) to wash away the non-binding compounds. Finally, the fixed ligand candidates were fished out from the complex throughout enzyme denaturation with 200 μL of 70% (v/v) aqueous methanol before centrifugation (10,000 rpm, 10 min). The filtrates from three denaturation processes were gathered and dried on nitrogen blowing before reconstitution in 50 μL of aqueous methanol (50%, v/v) for further analytical analysis.
(§3) In this study, the high throughput ligand screening bio-affinity ultrafiltration UPLC/QTOF-MS targeting α-Glu and COX-2 has been utilized to fish out these key hypoglycemic and anti-inflammatory chemicals. […] Based on the comparison of peak areas of the chromatograms obtained from the sample incubated with the active enzyme and that of the denatured group, the relative binding of each candidate was assessed via the specific binding value calculated from the equation: Specific binding (SB)=Aactive/Ainactive

Assay [3] has as its target T1, COX-2. The assay can be described thus: In vitro COX-2 inhibition assay (inhibitor screening kit). It counts as biochemical. On the set-up: purchased Beyotime Biotechnology (Shanghai, China) S0168. The procedure: In brief, the working solutions including COX-2 cofactor, COX-2 enzyme solution, COX-2 substrate, and COX-2 probe were first prepared in accordance with the supplier manual, which were subsequently diluted ten times with the buffer kit assay. Thereafter, 150 µL Tris-HCl (pH 7.8), 10 µL of COX-2 cofactor, and 10 µL of work solution excluding the blank group were mixed in a 96 well black plate. […] After a 10 min incubation at 37°C, the reaction was initiated with 10 µL of COX-2 probe and 10 µL of COX-2 substrate. Finally, their relative fluorescence unit (RFU) was read from an excitation wavelength of 560 nm and an emission wavelength of 590 nm, after 20 min of incubation (37°C).
With RFU 100% enzyme , RFU sample , and RFU blank control represent the relative fluorescence value of the intact enzyme, samples and blank control respectively. The experiment was conducted in triplicates and the IC50 values were expressed into mean ± standard deviation.

Assay [4] in a line: ABTS free radical scavenging assay. Conditions: mean ± SD, n = 3. The procedure: as §1
Assay [5] in a line: Ferric reducing antioxidant power (FRAP) assay. Particulars: mean ± SD, n = 3. On the procedure: The ferric […] behavior using the ferric reducing antioxidant power (FRAP) assay was conducted based on a priorly reported method by our research group ([Rakotondrabe et al., 2022]).

Protocol for α-glucosidase (α-Glu): as §2, §3

Consider `Cc1cc(C(C)(C)C)c(O)c(C(C)(C)C)c1` [BHT, butylated hydroxytoluene], for which the “IC50 DPPH” value in assay [1] is reported as 10.82 ± 0.37^c µg/ml.
`O=c1oc2c(O)c(O)cc3c(=O)oc4c(O)c(O)cc1c4c23` [Compound 4, Ellagic acid]: on α-glucosidase (α-Glu), the “α-Glu SB (specific binding)” value came to 1.28. The “COX-2 SB (specific binding)” value on COX-2 [2] turned out to be 1.05.
With `O=c1c(O[C@@H]2O[C@H](CO)[C@@H](O)[C@H](O)[C@H]2O)c(-c2ccc(O)cc2)oc2cc(O)cc(O)c12` [Compound 6, Astragalin (Kaempferol-3-O-glucoside)], at α-glucosidase (α-Glu), the “α-Glu SB (specific binding)” value is listed as 1.32. Moreover, the “COX-2 SB (specific binding)” value at COX-2 [2] amounted to 1.36. Moreover, the 50% inhibitory concentration (IC50) at COX-2 [3] (validation with pure compounds, Figure 6B, read-out: COX-2 IC50) came to 49.1 ± 1.49 µM.
Take `O=c1cc(-c2ccc(O)cc2)oc2c([C@@H]3O[C@H](CO)[C@@H](O)[C@H](O)[C@H]3O)c(O)cc(O)c12` [Compound 8, Vitexin (Apigenin 8-C-glucoside)]: the “α-Glu SB (specific binding)” value at α-glucosidase (α-Glu) is listed as 1.26. Further, the “COX-2 SB (specific binding)” value on COX-2 [2] was found to be 1.32. The 50% inhibitory concentration (IC50) on COX-2 [3] came out at 27.9 ± 1.74 µM.
Turning to `Cc1c(C)c2c(c(C)c1O)CCC(C)(C(=O)O)O2` (centres unmarked) [Trolox], the “IC50 ABTS” value in assay [4] is 6.15 ± 0.98^d µg/ml. Moreover, in assay [5], the FRAP was 1.79 ± 0.01 mM Fe^2+/g and 1.79 ± 0.01^b mM Fe^2+/g.
`O=C1O[C@H]([C@@H](O)CO)C(O)=C1O` [Vit C, ascorbic acid]: the “IC50 DPPH” value in assay [1] is 3.35 ± 0.12^f µg/ml. The “IC50 ABTS” value in assay [4] is 4.18 ± 0.06^e µg/ml. In assay [5], the FRAP is 2.04 ± 0.01 mM Fe^2+/g and 2.04 ± 0.01^a mM Fe^2+/g.
